Experimental data from ChEMBL document CHEMBL1132125, “Synthesis of phosphonate 3-phthalidyl esters as prodrugs for potential intracellular delivery of phosphonates” (Bioorg Med Chem Lett, 1999).

Tests used:
[1] = Half-life period of compound was measured in rat plasma.; format: ADME
Rattus norvegicus = species: Rattus norvegicus; assay: Intracellular concentration of 1-naphthalenemethylphosphonate (NMPA) in isolated rat hepatocytes was measured after 15 min of incubation.; format: functional; conditions: Hepatocyte

| SMILES | half-life [1] [min] | Concentration (Rattus norvegicus) [µM] |
| --- | --- | --- |
| CCOc1cccc2c1C(=O)OC2OP(=O)(Cc1cccc2ccccc12)OC1OC(=O)c2c(OCC)cccc21 (configuration not stated) | 2 | 208 |
| O=P(O)(O)Cc1cccc2ccccc12 |  | 0 |
| O=C1OC(OP(=O)(Cc2cccc3ccccc23)OC2OC(=O)c3c(Cl)ccc(Cl)c32)c2c(Cl)ccc(Cl)c21 (configuration not stated) | 0.1 | 78 |
| COc1cccc2c1C(=O)OC2OP(=O)(Cc1cccc2ccccc12)OC1OC(=O)c2c(OC)cccc21 (configuration not stated) | 2 | 336 |
| COc1ccc2c(c1)C(OP(=O)(Cc1cccc3ccccc13)OC1OC(=O)c3ccc(OC)cc31)OC2=O (configuration not stated) | 0.5 | 428 |
| COc1cc2c(c(OC)c1OC)C(=O)OC2OP(=O)(Cc1cccc2ccccc12)OC1OC(=O)c2c1cc(OC)c(OC)c2OC (configuration not stated) | 5 | 246 |
| Cc1ccc2c(c1-c1ccccc1)C(=O)OC2OP(=O)(Cc1cccc2ccccc12)OC1OC(=O)c2c1ccc(C)c2-c1ccccc1 (configuration not stated) | 10 | 20 |
| COc1cccc2c1C(OP(=O)(Cc1cccc3ccccc13)OC1OC(=O)c3cccc(OC)c31)OC2=O (configuration not stated) |  | 0 |
| O=C1OC(OP(=O)(Cc2cccc3ccccc23)OC2OC(=O)c3ccccc32)c2ccccc21 (configuration not stated) | 0.5 | 500 |
| COc1cc(OC)c2c(c1)C(OP(=O)(Cc1cccc3ccccc13)OC1OC(=O)c3c(OC)cc(OC)cc31)OC2=O (configuration not stated) |  | 359 |
